Where two headings read alike, the source gives them in different places.
Tests used:
[1] = test system: Ba/F3 KIF5B-RET-V804M cells; test: Ba/F3 KIF5B-RET-V804M cell inhibition (CellTiter-Glo); assay type: cell-based; conditions: Mus musculus, BaF3, 72 h
Method: (§1) Activity Experiment 3: Inhibition of Ba/F3 KIF5B-RET Cells by Prepared Compounds Ba/F3 KIF5B-RET, Ba/F3KIF5B-RET-V804M, Ba/F3 RET-M918T and Ba/F3 KIF5B-RET-G810R cells growing in log phase were harvested and counted using a […]. The cell viability was determined by the trypan blue exclusion method, and the cell viability was kept over 90%. The cell concentration was adjusted, and 90 μL of the cell suspension was added to a 96-well plate. The cells in the 96-well plate were incubated overnight at 37° C. with 5% CO2 and 95% humidity. Corresponding gradient concentrations of drug solutions (the maximum concentration was 1000 nM) were added to the 96-well plate inoculated with cells at 10 μL/well. Triplicate wells were set per drug concentration, and the final concentration of DMSO was 0.1%. The drug-treated cells in the 96-well plate were incubated for another 72 h at 37° C. with 5% CO2 and 95% humidity. After the drug treatment was completed, 100 μL of CellTiter-Glo reagent was added to each well. The cell plate was shaken on an orbital shaker for 5 min to lyse the cells and then let stand at room temperature for 20 min to stabilize the luminescence signals, and then the luminescence values were read. The data were analyzed using the GraphPad Prism 5.0 software. Dose-response curves were fit to the data using nonlinear S-curve regression, and IC50 was calculated from the curves.

[2] = test system: Ba/F3 KIF5B-RET-G810R cells; test: Ba/F3 KIF5B-RET-G810R cell inhibition (CellTiter-Glo); assay type: cell-based; conditions: Mus musculus, BaF3, 72 h, maximum concentration 1000 nM
Method: as §1

Ba/F3 KIF5B-RET cells = test: Ba/F3 KIF5B-RET cell inhibition (CellTiter-Glo); assay type: cell-based; conditions: Mus musculus, BaF3, 72 h
Method: as §1

Ba/F3 RET-M918T cells = test: Ba/F3 RET-M918T cell inhibition (CellTiter-Glo); assay type: cell-based; conditions: Mus musculus, BaF3, 72 h
Method: as §1

in vitro = conditions: human, microsomes; for microsomal CLint at 1 µM: CLint (μL/min/mg); for half-life at 1 µM: T1/2 (min)
hERG potassium channel [3] = biological target: T1, hERG potassium channel (Homo sapiens (Human), UniProt Q12809)
T1 sequence (Q12809 whole entry): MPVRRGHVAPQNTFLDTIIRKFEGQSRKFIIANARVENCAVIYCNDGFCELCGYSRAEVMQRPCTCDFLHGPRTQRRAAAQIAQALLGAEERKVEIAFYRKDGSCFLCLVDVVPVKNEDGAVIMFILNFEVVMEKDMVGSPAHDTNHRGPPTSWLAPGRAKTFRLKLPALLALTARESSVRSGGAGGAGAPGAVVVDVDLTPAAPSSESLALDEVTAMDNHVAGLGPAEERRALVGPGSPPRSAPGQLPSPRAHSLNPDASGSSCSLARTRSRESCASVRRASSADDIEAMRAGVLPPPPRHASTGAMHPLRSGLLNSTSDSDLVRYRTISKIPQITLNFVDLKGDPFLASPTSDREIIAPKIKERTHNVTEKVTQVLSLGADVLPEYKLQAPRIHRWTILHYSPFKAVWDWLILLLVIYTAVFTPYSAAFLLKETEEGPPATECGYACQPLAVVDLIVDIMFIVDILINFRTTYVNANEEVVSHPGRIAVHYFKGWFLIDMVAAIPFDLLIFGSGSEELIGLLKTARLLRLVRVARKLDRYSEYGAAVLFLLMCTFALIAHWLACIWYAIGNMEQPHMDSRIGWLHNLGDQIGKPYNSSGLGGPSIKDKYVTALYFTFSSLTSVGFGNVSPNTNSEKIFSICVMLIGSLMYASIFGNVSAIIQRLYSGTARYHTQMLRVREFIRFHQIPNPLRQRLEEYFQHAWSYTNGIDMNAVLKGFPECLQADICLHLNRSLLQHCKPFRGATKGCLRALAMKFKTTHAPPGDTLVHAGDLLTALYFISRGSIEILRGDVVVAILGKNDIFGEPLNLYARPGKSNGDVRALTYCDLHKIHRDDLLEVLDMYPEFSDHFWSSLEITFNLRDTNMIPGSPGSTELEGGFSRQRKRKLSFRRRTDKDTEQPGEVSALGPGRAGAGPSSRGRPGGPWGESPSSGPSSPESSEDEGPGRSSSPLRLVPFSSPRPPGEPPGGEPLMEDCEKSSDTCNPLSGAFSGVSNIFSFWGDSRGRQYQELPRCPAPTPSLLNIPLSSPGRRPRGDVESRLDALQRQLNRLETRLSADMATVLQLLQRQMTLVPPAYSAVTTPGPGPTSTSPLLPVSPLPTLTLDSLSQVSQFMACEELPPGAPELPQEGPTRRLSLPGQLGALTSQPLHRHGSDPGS

hERG potassium channel [4] = biological target: T1, hERG potassium channel; test: Inhibition of hERG potassium channel, whole-cell patch clamp in HEK293 cells
[5] = Metabolic stability in human liver microsomes
RET (M918T) = RET (M918T) (Homo sapiens (Human), UniProt P07949, M918T); test: HTRF kinase activity assay, RET (M918T); assay type: biochemical; conditions: 10 μM ATP
Sequence of RET (M918T) (P07949 29-1114 M918T): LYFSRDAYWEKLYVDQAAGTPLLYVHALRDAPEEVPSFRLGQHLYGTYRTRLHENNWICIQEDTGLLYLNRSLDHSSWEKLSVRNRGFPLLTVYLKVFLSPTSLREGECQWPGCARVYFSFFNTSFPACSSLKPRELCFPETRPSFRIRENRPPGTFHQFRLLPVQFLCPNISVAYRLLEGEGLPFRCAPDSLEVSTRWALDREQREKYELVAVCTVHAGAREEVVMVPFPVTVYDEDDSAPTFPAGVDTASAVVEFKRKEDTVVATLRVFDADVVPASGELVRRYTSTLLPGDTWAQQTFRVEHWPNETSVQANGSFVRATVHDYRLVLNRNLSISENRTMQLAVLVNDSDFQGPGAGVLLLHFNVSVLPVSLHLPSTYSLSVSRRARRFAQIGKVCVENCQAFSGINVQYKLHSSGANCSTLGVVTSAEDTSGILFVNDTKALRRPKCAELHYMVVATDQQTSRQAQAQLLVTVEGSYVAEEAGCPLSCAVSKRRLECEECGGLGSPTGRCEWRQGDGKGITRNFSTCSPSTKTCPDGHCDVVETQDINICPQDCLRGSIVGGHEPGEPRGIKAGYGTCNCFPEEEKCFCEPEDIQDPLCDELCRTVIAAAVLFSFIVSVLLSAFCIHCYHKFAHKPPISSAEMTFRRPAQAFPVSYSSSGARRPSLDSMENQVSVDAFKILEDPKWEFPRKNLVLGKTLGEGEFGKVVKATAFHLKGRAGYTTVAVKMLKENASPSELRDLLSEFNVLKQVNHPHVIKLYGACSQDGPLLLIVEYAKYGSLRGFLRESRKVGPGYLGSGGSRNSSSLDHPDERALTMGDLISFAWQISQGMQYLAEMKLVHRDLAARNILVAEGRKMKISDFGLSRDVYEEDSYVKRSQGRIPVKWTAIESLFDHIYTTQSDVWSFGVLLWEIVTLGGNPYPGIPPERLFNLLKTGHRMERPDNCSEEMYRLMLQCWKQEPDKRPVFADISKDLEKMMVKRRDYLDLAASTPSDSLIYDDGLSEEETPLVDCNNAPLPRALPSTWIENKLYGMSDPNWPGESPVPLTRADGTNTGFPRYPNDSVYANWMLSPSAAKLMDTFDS

RET (V804M) = RET (V804M) (Homo sapiens (Human), UniProt P07949, V804M); test: HTRF kinase activity assay, RET (V804M); assay type: biochemical; conditions: 10 μM ATP
Sequence of RET (V804M) (P07949 29-1114 V804M): as the sequence (P07949 29-1114 M918T) above, with V776M, T890M counted along it

RET wild type (RET WT) = RET wild type (RET WT) (Homo sapiens (Human), UniProt P07949); test: HTRF kinase activity assay, RET wild type; assay type: biochemical; conditions: 1 μM ATP
Sequence of RET wild type (RET WT) (P07949 29-1114): as the sequence (P07949 29-1114 M918T) above, with T890M counted along it

CCDC6-RET [6] = biological target: CCDC6-RET (Homo sapiens (Human), UniProt P07949+Q16204); test: HTRF kinase activity assay, CCDC6-RET; assay type: biochemical; conditions: 1 μM ATP
Sequence of CCDC6-RET (Homo sapiens (Human), UniProt P07949+Q16204) (P07949 other isoform, or with tags, fused parts or gaps): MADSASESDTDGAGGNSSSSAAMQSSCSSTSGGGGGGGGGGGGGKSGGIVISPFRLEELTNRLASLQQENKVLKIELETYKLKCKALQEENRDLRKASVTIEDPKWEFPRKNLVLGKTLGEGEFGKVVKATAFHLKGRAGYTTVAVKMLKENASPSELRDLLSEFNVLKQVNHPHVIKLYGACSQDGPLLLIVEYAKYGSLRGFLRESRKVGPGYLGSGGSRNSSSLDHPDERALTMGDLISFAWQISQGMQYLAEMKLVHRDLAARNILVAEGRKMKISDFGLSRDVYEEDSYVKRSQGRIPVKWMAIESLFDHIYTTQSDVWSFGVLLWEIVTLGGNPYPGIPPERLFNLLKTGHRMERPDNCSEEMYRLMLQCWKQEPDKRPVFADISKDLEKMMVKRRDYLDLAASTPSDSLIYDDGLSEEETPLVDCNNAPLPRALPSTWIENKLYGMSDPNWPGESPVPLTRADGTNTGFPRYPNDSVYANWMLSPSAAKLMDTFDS

KDR (VEGFR2) = KDR (VEGFR2) (Homo sapiens (Human), UniProt P35968); test: HTRF kinase activity assay, KDR; assay type: biochemical; conditions: 20 μM ATP
Sequence of KDR (VEGFR2) (P35968 20-1356): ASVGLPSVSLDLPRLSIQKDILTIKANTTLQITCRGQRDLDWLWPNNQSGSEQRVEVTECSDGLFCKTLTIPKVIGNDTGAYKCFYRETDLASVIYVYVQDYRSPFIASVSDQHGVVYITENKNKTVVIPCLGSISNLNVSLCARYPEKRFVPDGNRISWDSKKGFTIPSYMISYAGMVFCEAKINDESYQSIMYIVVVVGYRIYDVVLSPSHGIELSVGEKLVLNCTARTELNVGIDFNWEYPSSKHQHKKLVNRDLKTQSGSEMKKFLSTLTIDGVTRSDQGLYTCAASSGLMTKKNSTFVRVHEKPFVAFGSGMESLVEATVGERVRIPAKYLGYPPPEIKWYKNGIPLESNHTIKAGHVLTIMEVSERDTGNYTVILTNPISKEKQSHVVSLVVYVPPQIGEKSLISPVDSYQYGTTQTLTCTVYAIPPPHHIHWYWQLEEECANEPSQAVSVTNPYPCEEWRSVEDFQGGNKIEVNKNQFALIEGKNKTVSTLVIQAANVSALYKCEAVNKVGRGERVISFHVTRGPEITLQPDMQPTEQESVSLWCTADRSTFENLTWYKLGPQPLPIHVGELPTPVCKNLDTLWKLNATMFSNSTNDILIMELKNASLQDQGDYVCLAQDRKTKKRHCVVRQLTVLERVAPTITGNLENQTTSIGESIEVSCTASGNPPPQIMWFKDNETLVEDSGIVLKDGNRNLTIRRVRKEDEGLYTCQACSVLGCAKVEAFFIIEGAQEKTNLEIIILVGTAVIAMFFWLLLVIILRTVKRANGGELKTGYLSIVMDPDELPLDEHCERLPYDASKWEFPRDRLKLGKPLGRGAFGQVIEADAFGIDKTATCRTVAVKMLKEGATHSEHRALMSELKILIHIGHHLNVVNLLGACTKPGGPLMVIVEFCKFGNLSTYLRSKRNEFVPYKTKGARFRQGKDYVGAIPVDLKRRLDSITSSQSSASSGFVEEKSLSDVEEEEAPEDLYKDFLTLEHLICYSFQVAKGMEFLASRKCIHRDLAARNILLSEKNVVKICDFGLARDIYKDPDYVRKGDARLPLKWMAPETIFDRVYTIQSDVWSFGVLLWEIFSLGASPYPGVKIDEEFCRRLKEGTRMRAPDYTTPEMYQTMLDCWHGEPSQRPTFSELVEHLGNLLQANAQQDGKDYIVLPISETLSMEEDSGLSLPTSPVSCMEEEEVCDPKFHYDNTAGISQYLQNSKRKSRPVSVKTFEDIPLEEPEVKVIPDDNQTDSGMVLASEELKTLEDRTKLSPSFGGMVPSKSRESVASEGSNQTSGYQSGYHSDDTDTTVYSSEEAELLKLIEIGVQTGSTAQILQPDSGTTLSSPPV

CCDC6-RET [7] = biological target: CCDC6-RET (Homo sapiens (Human), UniProt P07949); test: HTRF kinase activity assay, CCDC6-RET; assay type: biochemical; conditions: 1 μM ATP
Sequence of CCDC6-RET (Homo sapiens (Human), UniProt P07949) (P07949 other isoform, or with tags, fused parts or gaps): as the sequence (P07949 other isoform, or with tags, fused parts or gaps) above

[8] = read-out: IC50 for inhibition of hERG potassium channel, HEK293 cells stably expressing hERG, patch clamp
[9] = T1/2 (min), human liver microsomes, NADPH, Table 3
[10] = CLint (μL/min/mg), human liver microsomes, NADPH, Table 3

| Compound | IC50 (Ba/F3 KIF5B-RET cells) | IC50 (RET (M918T)) | IC50 (RET (V804M)) | IC50 (RET wild type (RET WT)) | IC50 (KDR (VEGFR2)) | other results |
| --- | --- | --- | --- | --- | --- | --- |
| CO[C@]1(C(=O)N[C@@H](C)c2ccc(-n3cc(F)cn3)nc2)CC[C@H](c2nc(C)cc(Nc3cc(C)[nH]n3)n2)CC1 [BLU-667, reference compound] | 11.3 nM | – | – | – | – | IC50 [1]: 11.1 nM; IC50 [2]: 481 nM; IC50 (Ba/F3 RET-M918T cells): 12.9 nM |
| COc1ccc(CN2C3CC2CN(c2ccc(-c4cc(N5CC6CC(C5)N6)cn5ncc(C#N)c45)cn2)C3)cn1 [Compound 16] | – | – | – | – | – | microsomal CLint at 1 µM (in vitro): 8.8 µL/min/mg; half-life at 1 µM (in vitro): 158 min; IC50 (hERG potassium channel [3]): 2060 nM |
| COc1ccc(CN2C3CC2CN(c2ccc(-c4cc(N5CC6CC(C5)N6C)cn5ncc(C#N)c45)cn2)C3)cn1 [Compound 17] | – | – | – | – | – | microsomal CLint at 1 µM (in vitro): 36.4 µL/min/mg; half-life at 1 µM (in vitro): 38.1 min; IC50 (hERG potassium channel [3]): 1310 nM |
| COc1ccc(CN2C3CC2CN(c2ccc(-c4cc(N5CCP(C)(=O)CC5)cn5ncc(C#N)c45)cn2)C3)cn1 [Compound 20] | – | – | – | – | – | IC50 (hERG potassium channel [4]; [8]): 22200 nM; half-life at 1 µM [5]: 231 min; microsomal CLint at 1 µM [5]: 6 µL/min/mg |
| COc1ccc(CN2CCC(Nc3ccc(-c4cc(-c5cnn(C)c5)cn5ncc(C#N)c45)cn3)CC2)cn1 [Compound 21] | – | 80 nM | 188 nM | 45 nM | 109 nM | IC50 (CCDC6-RET [6]): 60.5 nM |
| COc1ccc(CN2CCCN(c3ccc(-c4cc(-c5cnn(C)c5)cn5ncc(C#N)c45)cn3)CC2)cn1 [Compound 32] | – | 1.73 nM | 4.8 nM | 2.11 nM | 39.1 nM | IC50 (CCDC6-RET [6]): 3.13 nM |
| COc1ccc(CN(C)C2CCCCC2N(C)c2ccc(-c3cc(-c4cnn(C)c4)cn4ncc(C#N)c34)cn2)cn1 (stereo not shown) [Compound 34] | – | 97.8 nM | 210 nM | 35.8 nM | 311 nM | IC50 (CCDC6-RET [6]): 71.6 nM |
| COc1ccc(CN2C3CC2CN(c2ccc(-c4cc(-c5cnn6c5CCC6)cn5ncc(C#N)c45)cn2)C3)cn1 [Compound 51] | – | 3.9 nM | 7.16 nM | 4.61 nM | 52 nM | IC50 (CCDC6-RET [6]): 2.15 nM |
| COc1ccc(CN2C3CC2CN(c2ccc(-c4cc(-c5cc6n(n5)CCC6)cn5ncc(C#N)c45)cn2)C3)cn1 [Compound 57] | – | – | – | – | – | microsomal CLint at 1 µM (in vitro): 69.8 µL/min/mg; half-life at 1 µM [5, 9]: 19.9 min |
| COc1ccc(CN2CCN(c3ccc(-c4cc(-c5cc6n(n5)CCC6)cn5ncc(C#N)c45)cn3)CC2)cn1 [Compound 58] | – | 9.52 nM | 19.3 nM | 4.98 nM | 134 nM | – |
| COc1ccc(CN2C3CC2CN(c2ccc(-c4cc(N5CCOCC5)cn5ncc(C#N)c45)cn2)C3)cn1 [Compound 65] | 8.06 nM | – | – | – | – | IC50 [1]: 58.6 nM; IC50 (hERG potassium channel [4]; [8]): 2720 nM; microsomal CLint at 1 µM [5, 10]: 44.8 µL/min/mg; half-life at 1 µM [5, 9]: 30.9 min; IC50 (Ba/F3 RET-M918T cells): 23.9 nM |
| COc1ccc(CN2C3CC2CN(c2ccc(-c4cc(C#CC(C)(C)O)cn5ncc(C#N)c45)cn2)C3)cn1 [Compound 66] | 9.17 nM | 2.05 nM | 7.69 nM | 1.66 nM | 124 nM | IC50 (CCDC6-RET [7]): 1.13 nM |
| COc1ccc(CN2C3CC2CN(c2ccc(-c4cc(N5CCC(O)C5)cn5ncc(C#N)c45)cn2)C3)cn1 (stereo not shown) [Compound 67] | 3.58 nM | 0.75 nM | 1.09 nM | 0.79 nM | 24.6 nM | – |
| COc1ccc(CN2C3CC2CN(c2ccc(-c4cc(N5CCC(OC)C5)cn5ncc(C#N)c45)cn2)C3)cn1 (stereo not shown) [Compound 68] | 2 nM | 8.47 nM | 5.37 nM | 1.3 nM | 16.6 nM | IC50 (CCDC6-RET [7]): 2.54 nM |
| COc1ccc(CN2C3CC2CN(c2ccc(-c4cc(N5CCOCC5=O)cn5ncc(C#N)c45)cn2)C3)cn1 [Compound 69] | – | 22.3 nM | 38.5 nM | 18.6 nM | 755 nM | IC50 (CCDC6-RET [7]): 12 nM |
| COc1ccc(CN2C3CC2CN(c2ccc(-c4cc(N5CCC(C)(O)C5)cn5ncc(C#N)c45)cn2)C3)cn1 (stereo not shown) [Compound 70] | 0.99 nM | 1.62 nM | 1.01 nM | 1.17 nM | 23.9 nM | IC50 [1]: 11.9 nM; IC50 [2]: 194 nM; IC50 (hERG potassium channel [4]): 4740 nM; IC50 (CCDC6-RET [7]): 1.02 nM; microsomal CLint at 1 µM [5, 10]: 50.6 µL/min/mg; half-life at 1 µM [5, 9]: 27.4 min; IC50 (Ba/F3 RET-M918T cells): 1.15 nM |
| COc1ccc(CN2C3CC2CN(c2ccc(-c4cc(NCC(C)(C)O)cn5ncc(C#N)c45)cn2)C3)cn1 [Compound 78] | 13.6 nM | – | – | – | – | – |
| COc1ccc(CN2C3CC2CN(c2ccc(-c4cc(N5CCCC(O)C5)cn5ncc(C#N)c45)cn2)C3)cn1 (stereo not shown) [Compound 82] | 17.1 nM | – | – | – | – | – |
| COc1ccc(CN2C3CC2CN(c2ccc(-c4cc(N5CC(C)(O)C5)cn5ncc(C#N)c45)cn2)C3)cn1 [Compound 86] | 3.66 nM | – | – | – | – | – |
| COc1ccc(CN2C3CC2CN(c2ccc(-c4cc(N5CCN(C)CC5)cn5ncc(C#N)c45)cn2)C3)cn1 [Compound 87] | 11.8 nM | – | – | – | – | IC50 [1]: 116 nM; IC50 [2]: 431 nM; IC50 (hERG potassium channel [4]; [8]): 2130 nM; microsomal CLint at 1 µM [5, 10]: 35.8 µL/min/mg; half-life at 1 µM [5, 9]: 38.7 min; IC50 (Ba/F3 RET-M918T cells): 13.4 nM |
| COc1ccc(CN2C3CC2CN(c2ccc(-c4cc(N5CCN(C)C(=O)C5)cn5ncc(C#N)c45)cn2)C3)cn1 [Compound 89] | 24 nM | – | – | – | – | IC50 [1]: 95.3 nM; IC50 [2]: 959 nM; IC50 (hERG potassium channel [4]; [8]): 7170 nM; IC50 (Ba/F3 RET-M918T cells): 11.6 nM |
| COc1ccc(CN2C3CC2CN(c2ccc(-c4cc(N5CCNCC5)cn5ncc(C#N)c45)cn2)C3)cn1 [Compound 96] | 41.8 nM | – | – | – | – | IC50 [1]: 196 nM; IC50 (Ba/F3 RET-M918T cells): 45.1 nM |
| [2H]C([2H])([2H])N1CCN(c2cc(-c3ccc(N4CC5CC(C4)[N+]5([O-])Cc4ccc(OC)nc4)nc3)c3c(C#N)cnn3c2)CC1 (stereo not shown) [Compound 99] | – | – | – | 56.6 nM | – | – |
| [2H]C([2H])([2H])[N+]1([O-])CCN(c2cc(-c3ccc(N4CC5CC(C4)N5Cc4ccc(OC)nc4)nc3)c3c(C#N)cnn3c2)CC1 [Compound 101] | – | – | – | 2.5 nM | 215 nM | – |
